Bridge positions count the residues as written; N and C are the ends. Square brackets hold non-standard residues; d marks the D form. Peptide text beside a SMILES is read from it. AEEA = NCCOCCOCC(=O)O
Tests used:
GST-hTEAD1 / biotin-VGL4 = biological target: T1, GST-hTEAD1 / biotin-VGL4 (Homo sapiens, UniProt P28347); experiment: Competition pull-down of GST-hTEAD1 with immobilised biotin-VGL4; type: biochemical; conditions: GST-hTEAD1 1 µM
T1 construct: CDNA of hTEAD1(209–426) fused with an N-terminal GST tag; made in house; host or cells: Escherichia coli BL21 DE3 RIL(K+); bait peptide synthetic
T1 sequence (P28347 209-426): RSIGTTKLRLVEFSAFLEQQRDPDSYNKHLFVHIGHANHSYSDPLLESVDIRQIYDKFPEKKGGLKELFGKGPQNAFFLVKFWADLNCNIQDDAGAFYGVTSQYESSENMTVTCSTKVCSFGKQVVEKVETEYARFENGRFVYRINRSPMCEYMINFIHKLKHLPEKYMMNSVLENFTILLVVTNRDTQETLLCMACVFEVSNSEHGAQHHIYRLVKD
Procedure: Beads were then extensively washed with the incubation buffer followed by protein elution after boiling the beads at 95 °C for 10 min in 25 µL of SDS loading buffer. SDS PAGE was performed using standard methods and the gel was visualized after Coomassie staining with a Li-COR Fc Imager.

GST-hTEAD1 = biological target: T2, GST-hTEAD1 (Homo sapiens, UniProt P28347); experiment: SPR binding to immobilised GST-hTEAD1; conditions: GST-hTEAD1 amine-coupled on CM5, multi-cycle, steady-state fit 1:1 model, 10 mM HEPES 150 mM NaCl 0.05% Tween-20 pH 7.4, 0.3% DMSO, 20 °C, Fig. 1 values n = 1 replicate
T2 construct: CDNA of hTEAD1(209–426) fused with an N-terminal GST tag; made in house; host or cells: Escherichia coli BL21 DE3 RIL(K+)
T2 sequence (P28347 209-426): as above
In short: (§1)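 Proteins amine-coupled (NHS/EDC) to CM5 chips from 10 mM MES pH 6.4; running buffer 10 mM HEPES, 150 mM NaCl, 0.05% Tween-20, pH 7.4, 20 °C, 30 µL min^−1. Multi-cycle kinetics: seven threefold analyte dilutions from 30 µM, 45 s contact, 6-min dissociation, reference-surface subtracted.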

RKO cells [1] = experiment: Wound closure assay; type: cell-based
Procedure: Ca. 100,000 RKO cells were seeded per well in a transparent ImageLock 96-well plate (#4379, Essen Bioscience) and treated with the samples the next day. Wound Healing Assay was performed using the IncuCyte® ZOOM system and the WoundMaker™ device (both Essen Bioscience). The scratch was performed according to manufacturer’s protocol and images were acquired every 2 h. Image-based analysis of wound closure was conducted using the IncuCyte ZOOM 2016B software (Essen Bioscience). Confluency within the wound area was normalized to the confluency at the time of scratch preparation and plotted using GraphPad Prism 6.

mTEAD4 = biological target: T3, mTEAD4 (Mus musculus, UniProt Q62296); experiment: SPR binding to immobilised mTEAD4; conditions: mTEAD4 amine-coupled on CM5, multi-cycle, steady-state fit 1:1 model, 10 mM HEPES 150 mM NaCl 0.05% Tween-20 pH 7.4, 0.3% DMSO, 20 °C, Fig. 1 values n = 1 replicate
T3 construct: Mouse TEAD4(210–427) cDNA fused with a 6x His-tag and a 3C protease cleavage site; 6x His-tag; 3C protease cleavage site; made in house; host or cells: E. coli BL21 DE3 RIL(K+)
T3 sequence (Q62296 210-427): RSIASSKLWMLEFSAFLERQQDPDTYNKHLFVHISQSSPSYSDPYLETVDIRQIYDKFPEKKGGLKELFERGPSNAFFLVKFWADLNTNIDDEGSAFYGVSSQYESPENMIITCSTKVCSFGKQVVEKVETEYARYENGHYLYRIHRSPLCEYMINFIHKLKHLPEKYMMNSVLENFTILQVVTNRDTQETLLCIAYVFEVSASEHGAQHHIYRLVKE
In short: as §1

YAP–TEAD interaction = experiment: Proximity ligation assay (PLA) in RKO cells; type: cell-based; conditions: 24 h incubation, c = 30 µM
Procedure: Ca. 5000 RKO cells were seeded per well in black 96-well plates with glass bottom (#5241-20, MoBiTec) and treated with the peptides or DMSO as vehicle control. After 24 h, the cells were fixed for 10 min using 4% paraformaldehyde (#UN2209, AppliChem) in PBS prior to permeabilization with 0.1% Triton X-100 (#39795.02, Serva) in PBS for 10 min. […] The cells were treated with the corresponding PLA probes (donkey anti-rabbit PLUS, #DUO92002, dilution 1:5; donkey anti-mouse MINUS, #DUO92004, dilution 1:5, Sigma-Aldrich) and with the Duolink In Situ Detection Orange Kit (#DUO92007, Sigma-Aldrich) for ligation and amplification according to the manufacturer's instructions. Finally, the cells were treated with 1 μg mL^-1 DAPI (#D9542, Sigma-Aldrich) to stain nuclei for further microscopy analysis. Images were acquired using a Zeiss Observer Z1 microscope with an 63× oil objective. Picture data were analysed by the ImageJ “analyze particles” macro to count PLA spots per cell. Ten pictures were counted for each condition per experiment. Statistical analysis was performed using Student's paired t test.

RKO cells [2] = experiment: Sub-cellular (cytoplasmic, nuclear) peptide concentration in RKO cells by UPLC-MS; conditions: for Sub-cellular drug content, Cytoplasm / Sub-cellular drug content, Cytoplasm, Measured concentration / Sub-cellular drug content, Nuclear / Sub-cellular drug content, Nuclear, Measured concentration: n = 2
Procedure: Peptides were incubated in RKO cells (ATCC, #CRL-2577) as follows: Experiment 1: RKO cells were incubated in 25 µM compound for 90 min and 24 h. Experiment 2: RKO cells were incubated in 25 µM for 30 min or 72 h. Following peptide incubation, the cells were washed twice with PBS, trypsinized and pelleted. The pellets were lysed in RIPA buffer (Perkin Elmer) for total lysis, or CelLytic NuCLEAR Extraction Kit (SIGMA) for subcellular fractionation. Total protein quantification BCA (Pierce) was performed prior to MS analysis to normalize sample data. Total and fractionated cell lysates were analysed by quantitative UPLC-MS utilizing a Waters Xevo TQ-XS (WBA0259) and an Acquity UPLC system from Waters consisting of Sample Manager (M16UFL953M), Acquity PDA (F17UPD457A), Column Oven (E17CMP703G) and Binary Solvent Manager (E17BUR621G). […] Chromatograms of the samples were treated similarly, and by linear regression (1/x) an in-cell concentration was established in the re-suspended cell lysate using the Waters MassLynx TargetLynx^TM product.

rat heart cells = experiment: Cell toxicity assessment on rat heart cells in culture; conditions: c(peptide) = 10 µM
Procedure: whole heart cells monitored by fluorescence microscopy after 90 minutes treatments (scale bar: 25 µm), number of […]
4E as well as control compounds (SB203580, CHIR99021) on rat heart cells in culture (c(peptide) = 10 µM). Number of independent biological replicates: n = 6, error bars = SEM. […]
cytometry analysis of live cells after 90 min incubation at 5 µM: Representative histogram plot, (-) DMSO control). Source data are provided as a Source Data file.
(1 picture or pasted object on this page, not shown here)

[3] = 25 µM compound, 90 minutes, fractionation, UPLC-MS
[4] = 25 µM compound, 24 hours, fractionation, UPLC-MS

SMILES: CC[C@H](C)[C@@H]1NC(=O)[C@H](CCC(N)=O)NC(=O)[C@H](CC(C)C)NC(=O)[C@H](Cc2c[nH]c3ccccc23)NC(=O)[C@H]([C@@H](C)O)NC(=O)[C@H](CC(=O)O)NC(=O)CNC(=O)[C@H](CC(C)C)NC(=O)[C@H](C)NC(=O)[C@H](CCCCN)NC(=O)[C@H](C)NC(=O)[C@H](Cc2ccccc2)NC(=O)[C@H](Cc2c[nH]cn2)NC(=O)[C@H](CC(=O)O)NC(=O)[C@@H](NC(=O)[C@@H](NC(=O)[C@H](CO)NC(=O)COCCOCCNC(=O)[C@H](CCC(N)=O)NC(=O)[C@@H]2CCCN2C(=O)[C@H](CCCNC(=N)N)NC(=O)[C@H](CCCNC(=N)N)NC(=O)[C@H](CCCNC(=N)N)NC(=O)[C@H](CCC(N)=O)NC(=O)[C@H](CCCNC(=N)N)NC(=O)[C@H](CCCNC(=N)N)NC(=O)[C@H](CCCCN)NC(=O)[C@H](CCCCN)NC(=O)[C@H](CCCNC(=N)N)NC(=O)CNC(C)=O)C(C)C)CCC(=O)NCCCC[C@@H](C(=O)N[C@@H](C)C(=O)N[C@@H](C)C(N)=O)NC1=O [compound 7] (Ac-GRKKRRQRRRPQ[AEEA]SVEDHFAKALGDTWLQIKAA-NH2; lactam 16-31)
- required concentration for VGL4 competition in the pull-down assay (GST-hTEAD1 / biotin-VGL4; immobilised biotin-VGL4, 2.5 h): ca. 100 µM
- Competition with TEAD–VGL4 complex formation (pull-down) (GST-hTEAD1 / biotin-VGL4; peptide 50 and 200 µM, biotin-VGL4 on streptavidin beads, 2.5 h, SDS-PAGE, n = 1): compete with TEAD–VGL4 complex formation
- Kd (GST-hTEAD1): 830 ± 780 nM
- Effect on wound closure (RKO cells [1]; c = 30 µM, 48 h treatment): considerably increased wound closure
- Wound closure (%) (RKO cells [1]; dose-dependent, 1 µM peptide 7, mean of n = 3): 53.07%
- Wound closure (%) (RKO cells [1]; dose-dependent, 5 µM peptide 7, mean of n = 3): 61.51%
- Wound closure (%) (RKO cells [1]; dose-dependent, 10 µM peptide 7, mean of n = 3): 67.72%
- Wound closure (%) (RKO cells [1]; dose-dependent, 30 µM peptide 7, mean of n = 3): 76.06%
- Wound closure (%) (RKO cells [1]; time-dependent, 12 hours, mean of n = 3): 26.59%
- Wound closure (%) (RKO cells [1]; time-dependent, 24 hours, mean of n = 3): 49.56%
- Wound closure (%) (RKO cells [1]; time-dependent, 36 hours, mean of n = 3): 65.47%
- Wound closure (%) (RKO cells [1]; time-dependent, 48 hours, mean of n = 3): 75.27%
- Kd (mTEAD4): 1500 ± 1000 nM
- Effect on YAP–TEAD complexes (PLA) (YAP–TEAD interaction): an increase in YAP–TEAD complexes
- Sub-cellular drug content, Cytoplasm (RKO cells [2]; [3]): 0.07968 nmol
- Sub-cellular drug content, Cytoplasm, Measured concentration (RKO cells [2]; [3]): 265.5865 nM
- Sub-cellular drug content, Nuclear (RKO cells [2]; [3]): 0.1853 nmol
- Sub-cellular drug content, Nuclear, Measured concentration (RKO cells [2]; [3]): 123.5385 ± 6.5745 nM
- Sub-cellular drug content, Cytoplasm (RKO cells [2]; [4]): 0.04677 nmol
- Sub-cellular drug content, Cytoplasm, Measured concentration (RKO cells [2]; [4]): 155.914 ± 40.331 nM
- Sub-cellular drug content, Nuclear (RKO cells [2]; [4]): 0.06065 nmol
- Sub-cellular drug content, Nuclear, Measured concentration (RKO cells [2]; [4]): 202.161 ± 23.082 nM
- loss of cytosolic concentration between 90 min and 24 h incubation (RKO cells [2]; 25 µM, authors' response in peer review file): 47%
- pMol/mg (RKO cells [2]; Cytoplasm, 25 µM compound, 90 minutes (1.5 hrs), replicate 1): 104.1 pMol/mg
- pMol/mg (RKO cells [2]; Cytoplasm, 25 µM compound, 90 minutes (1.5 hrs), replicate 2): 74.3 pMol/mg
- pMol/mg (RKO cells [2]; Cytoplasm, 25 µM compound, 24 hours, replicate 1): 73.3 pMol/mg
- pMol/mg, Mean (RKO cells [2]; Nuclear, 25 µM compound, 90 minutes (1.5 hrs), mean of 2 replicates): 231.15 pMol/mg
- pMol/mg (RKO cells [2]; Nuclear, 25 µM compound, 24 hours, replicate 1): 336.5 pMol/mg
- Cytoplasmic concentration of peptide (RKO cells [2]; cytoplasmic fraction, UPLC-MS, mean of n = 2): 89.2 pMols/mg of protein
- Nuclear concentration of peptide (RKO cells [2]; nuclear fraction, UPLC-MS, mean of n = 2): 209 pMols/mg of protein
- Detection in cytoplasmic and nuclear fractions (RKO cells [2]; unlabelled peptide 25 µM, 90 min and 24 h, fractionation, UPLC-MS): found in both compartments
- Total cell number (% DMSO control) (rat heart cells; raw data replicate 1): 121.364 % DMSO control
- Total cell number (% DMSO control) (rat heart cells; raw data replicate 2): 169.336 % DMSO control
- Total cell number (% DMSO control) (rat heart cells; raw data replicate 3): 227.316 % DMSO control
- Total cell number (% DMSO control) (rat heart cells; raw data replicate 4): 141.087 % DMSO control
- Total cell number (% DMSO control) (rat heart cells; raw data replicate 5): 122.138 % DMSO control
- Total cell number (% DMSO control) (rat heart cells; raw data replicate 6): 106.984 % DMSO control

Reference: article PMC7591920, “A protein tertiary structure mimetic modulator of the Hippo signalling pathway” (Nature Communications, 2020)
